Experiment [1] has as its system H1N1 (influenza A/New Caledonia/20/99). Nature of the experiment: microbe, parasite or virus in culture. It counts as cell-based. As to conditions: H1N1, A549, 48 h.
The subject of the next experiment is UXF 1138. Nature of the experiment: Cytotoxicity, propidium iodide based monolayer assay. It is filed as cell-based. The following applies: 96 h; UXF 1138 uterine sarcoma, four days of treatment, T/C=50%; read-out: Absolute IC50. As for the experimental part:
The cytotoxicity was tested for compounds of the invention on five different cell-lines, namely LXFL 1121, MAXF 401, MMXF L-636, PRXF PC-3M and UXF 1138 which are respectively lung large cell carcinoma, breast adeno carcinoma, multiple myeloma, prostate adeno carcinoma and uterine sarcoma.
A working stock solution of the test compounds was prepared in DMSO at a concentration of 33 mM or 8.25 mM, and small aliquots were stored at −20° C. On each day of an experiment, a frozen aliquot of the working stock solution was thawed and stored at room temperature prior to and during treatment.
All liquid handling steps were performed using the Tecan Freedom EVO 200 platform. First, serial 2-fold dilutions of the 33 mM DMSO working stock solution were done in DMSO. The DMSO dilutions were then diluted 1:22 into cell culture medium in an intermediate dilution plate. Finally, 10 μl taken from the intermediate dilution plate were transferred to 140 μl/well of the final assay plate. Thus, the DMSO serial dilutions were diluted 1:330 with cell culture medium, and the DMSO concentration in the assay was 0.3% v/v.
Cell lines were routinely passaged once or twice weekly and maintained in culture for up to 20 passages. Most cell lines were grown at 37° C. in a humidified atmosphere with 5% CO2 in RPMI 1640 medium (25 mM HEPES, with L-glutamine, #FG1385, Biochrom, Berlin, Germany) supplemented with 10% (v/v) fetal calf serum (Sigma, Taufkirchen, Germany) and 0.05 mg/mL gentamicin (Life Technologies, Karlsruhe, Germany).
A modified propidium iodide (PI) based monolayer assay was used to assess the anti-cancer activity of the compounds. Briefly, cells were harvested from exponential phase cultures, counted and plated in 96 well flat-bottom microtiter plates at a cell density of 4,000 to 40,000 cells/well dependent on the cell line's growth rate. The individual seeding density for each cell line ensure exponential growth conditions over the whole or at least the bigger part of the treatment period. After a 24 h recovery period, to allow the cells to resume exponential growth, 10 μl of culture medium (6 control wells/cell line/plate) or of culture medium with test compounds were added. Compounds were applied at ten concentrations in 2-fold increments in duplicates up to 25 μM or 100 μM and treatment continued for four days. After four days of treatment, cells were next washed with 200 μl PBS to remove dead cells and debris, then 200 μl of a solution containing 7 μg/ml propidium iodide (PI) and 0.1% (v/v) Triton X-100 was added. After an incubation period of 1-2 hours at room temperature, fluorescence (FU) was measured using the Enspire Multimode Plate Reader (excitation λ=530 nm, emission k=620 nm) to quantify the amount of attached viable cells.
Drug effects were expressed in terms of the percentage of the fluorescence signal, obtained by comparison of the mean signal in the treated wells with the mean signal of the untreated controls (expressed by the test-versus-control value, T/C−value [%]):
[formula] IC values reported reflect the concentration of the test compound that achieves T/C=50%. Calculation was done by 4 parameter non-linear curve fit.

Experiment [2] deals with T1, CISD3 Gene Product (Miner2) (Homo sapiens, UniProt P0C7P0).
T1 sequence (P0C7P0 15-127): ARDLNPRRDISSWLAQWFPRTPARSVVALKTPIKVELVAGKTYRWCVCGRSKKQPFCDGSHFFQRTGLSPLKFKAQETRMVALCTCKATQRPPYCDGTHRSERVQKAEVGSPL
Kind of experiment: Stability of Fe-S cluster binding of purified NEET protein (absorbance 458 nm). It counts as biochemical. As to conditions: for Residual cluster bound at end of experiment (Percentage Absorbance 458 nm at time zero): CISD3 gene product 20 μM, pH 6, at 180 minutes, vehicle control 11%; for Residual cluster bound at end of experiment (Percentage Absorbance 458 nm at time zero) / Time (in minutes) to achieve 50% loss of bound cluster (Absorbance 458 nm): compound 60 μM; for Time (in minutes) to achieve 50% loss of bound cluster (Absorbance 458 nm): Miner2 20 μM, pH 6, 37° C., run time 180 minutes, vehicle control 60; for Stabiliser or destabiliser of Fe-S cluster binding by CISD3 Gene Product (Miner2): time to 50% cluster loss changed by more than 25% compared to the Control sample, at the concentrations tested. An outline of the steps: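 Purified NEET protein (20 μM) with compound (60 μM, 1:3 molar ratio) in 100 mM Bis-Tris pH 6, 100 mM NaCl, 66 μM DMSO at 37 °C; 458 nm absorbance decay read every 5 min for 500 min (NAF-1) or 180 min (mitoNEET, Miner2). Outputs: time to 50% absorbance loss and residual % bound cluster, versus protein alone.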

SMILES strings stand for the structures.

Take `CC1(C)CCc2sc(NC(=O)c3ccccc3)c(C(=O)O)c21` [Compound #37, 2-Benzamido-4,4-dimethyl-5,6-dihydrocyclopenta[b]thiophene-3-carboxylic acid]: half-maximal inhibition in experiment [1] (IC50) was put at 196 nM. In addition, the IC50 in the experiment with UXF 1138 was found to be 9420 nM. Also, in experiment [2], the “Residual cluster bound at end of experiment (Percentage Absorbance 458 nm at time zero)” value is 37% (11%), the “Time (in minutes) to achieve 50% loss of bound cluster (Absorbance 458 nm)” value is 75 (60) minutes and the “Stabiliser or destabiliser of Fe-S cluster binding by CISD3 Gene Product (Miner2)” value (from here on “Stabiliser or destabiliser”) is recorded as “Stabilisers”.

The compound `CC1(C)Cc2c(sc(NC(=O)c3ccc(N4CCOCC4)cc3)c2C(=O)O)C(C)(C)C1` [Compound #36, 5,5,7,7-Tetramethyl-2-[(4-morpholinobenzoyl)amino]-4,6-dihydrobenzothiophene-3-carboxylic acid] registered an IC50 in experiment [1] of 40.1 nM. Further, the IC50 in the experiment with UXF 1138 worked out at 988 nM. Moreover, in experiment [2], the “Residual cluster bound at end of experiment (Percentage Absorbance 458 nm at time zero)” value is given as 39% (11%), the “Time (in minutes) to achieve 50% loss of bound cluster (Absorbance 458 nm)” value was 80 (60) minutes and the “Stabiliser or destabiliser” value is reported as “Stabilisers”.

`COC1CN(c2ccc(C(=O)Nc3sc4c(c3C(=O)O)CC(C)(C)CC4(C)C)cc2)C1` [Compound #58, 2-[[4-(3-Methoxyazetidin-1-yl)benzoyl]amino]-5,5,7,7-tetramethyl-4,6-dihydrobenzothiophene-3-carboxylic acid] returned an IC50 in experiment [1] of 0.9 nM. For the same compound, the IC50 in the experiment on UXF 1138 amounted to 819 nM. In addition, in experiment [2], the “Residual cluster bound at end of experiment (Percentage Absorbance 458 nm at time zero)” value is 44% (11%), the “Time (in minutes) to achieve 50% loss of bound cluster (Absorbance 458 nm)” value was 125 (60) minutes and the “Stabiliser or destabiliser” value was “Stabilisers”.

For the origin of these results see patent US11492347B2 (ENYO PHARMA, priority 2018, dated 2022).
